Test results: ChEMBL document CHEMBL5723582, “Data for DCP probe T-10430” (2024)

Assays:
Conditions in all cases: Compound concentration 1.0 uM
[1] = target: G-protein coupled estrogen receptor 1 (Homo sapiens) (UniProt Q99527); test: RLU of GPER at 1.0 µM in the […] PRESTO-Tango GPCRome screen
[2] = target: Hydroxycarboxylic acid receptor 3 (Homo sapiens) (UniProt P49019); test: RLU of HCA3 at 1.0 µM in the Aequorin PRESTO-Tango GPCRome screen
[3] = target: Sphingosine 1-phosphate receptor 5 (Homo sapiens) (UniProt Q9H228); test: RLU of S1PR5 at 1.0 µM in the […] PRESTO-Tango GPCRome screen
[4] = target: Metabotropic glycine receptor (Homo sapiens) (UniProt Q5T848); test: RLU of GPR158 at 1.0 µM in the […] PRESTO-Tango GPCRome screen
[5] = target: Somatostatin receptor type 4 (Homo sapiens) (UniProt P31391); test: RLU of SSTR4 at 1.0 µM in the […] PRESTO-Tango GPCRome screen
Chain of Somatostatin receptor type 4 (Homo sapiens) (P31391 whole entry): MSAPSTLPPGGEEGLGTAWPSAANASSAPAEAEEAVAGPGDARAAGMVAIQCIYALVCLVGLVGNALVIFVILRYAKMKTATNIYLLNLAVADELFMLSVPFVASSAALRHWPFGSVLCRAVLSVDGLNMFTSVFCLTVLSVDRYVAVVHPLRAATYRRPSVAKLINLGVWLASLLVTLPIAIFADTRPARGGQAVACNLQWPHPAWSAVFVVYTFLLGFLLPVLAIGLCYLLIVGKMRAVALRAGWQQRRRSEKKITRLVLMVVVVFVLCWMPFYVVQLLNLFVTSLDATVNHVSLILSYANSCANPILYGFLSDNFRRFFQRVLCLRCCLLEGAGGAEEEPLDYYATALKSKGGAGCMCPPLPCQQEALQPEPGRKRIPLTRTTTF

[6] = target: Oxoeicosanoid receptor 1 (Homo sapiens) (UniProt Q8TDS5); test: RLU of OXER1 at 1.0 µM in the […] PRESTO-Tango GPCRome screen
[7] = target: G-protein coupled receptor 161 (Homo sapiens) (UniProt Q8N6U8); test: RLU of GPR161 at 1.0 µM in the […] PRESTO-Tango GPCRome screen
[8] = target: G-protein coupled receptor 22 (Homo sapiens) (UniProt Q99680); test: RLU of GPR22 at 1.0 µM in the […] PRESTO-Tango GPCRome screen
Chain of G-protein coupled receptor 22 (Homo sapiens) (Q99680 whole entry): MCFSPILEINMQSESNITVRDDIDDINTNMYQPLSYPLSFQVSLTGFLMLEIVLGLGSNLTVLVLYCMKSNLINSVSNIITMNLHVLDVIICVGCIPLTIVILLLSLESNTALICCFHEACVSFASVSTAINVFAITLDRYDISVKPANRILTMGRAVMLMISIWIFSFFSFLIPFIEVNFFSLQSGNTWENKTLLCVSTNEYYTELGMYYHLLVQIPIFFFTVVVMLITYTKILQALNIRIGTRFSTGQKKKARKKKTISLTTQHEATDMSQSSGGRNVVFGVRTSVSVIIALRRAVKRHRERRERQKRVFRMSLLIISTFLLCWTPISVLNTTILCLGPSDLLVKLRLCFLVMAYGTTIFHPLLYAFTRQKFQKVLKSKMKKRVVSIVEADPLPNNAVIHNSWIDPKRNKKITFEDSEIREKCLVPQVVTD

[9] = target: Adenosine receptor A1 (Homo sapiens) (UniProt P30542); test: RLU of ADORA1 at 1.0 µM in the […] PRESTO-Tango GPCRome screen
[10] = target: Adhesion G protein-coupled receptor A3 (Homo sapiens) (UniProt Q8IWK6); test: RLU of GPR125 at 1.0 µM in the […] PRESTO-Tango GPCRome screen
Chain of Adhesion G protein-coupled receptor A3 (Homo sapiens) (Q8IWK6 whole entry): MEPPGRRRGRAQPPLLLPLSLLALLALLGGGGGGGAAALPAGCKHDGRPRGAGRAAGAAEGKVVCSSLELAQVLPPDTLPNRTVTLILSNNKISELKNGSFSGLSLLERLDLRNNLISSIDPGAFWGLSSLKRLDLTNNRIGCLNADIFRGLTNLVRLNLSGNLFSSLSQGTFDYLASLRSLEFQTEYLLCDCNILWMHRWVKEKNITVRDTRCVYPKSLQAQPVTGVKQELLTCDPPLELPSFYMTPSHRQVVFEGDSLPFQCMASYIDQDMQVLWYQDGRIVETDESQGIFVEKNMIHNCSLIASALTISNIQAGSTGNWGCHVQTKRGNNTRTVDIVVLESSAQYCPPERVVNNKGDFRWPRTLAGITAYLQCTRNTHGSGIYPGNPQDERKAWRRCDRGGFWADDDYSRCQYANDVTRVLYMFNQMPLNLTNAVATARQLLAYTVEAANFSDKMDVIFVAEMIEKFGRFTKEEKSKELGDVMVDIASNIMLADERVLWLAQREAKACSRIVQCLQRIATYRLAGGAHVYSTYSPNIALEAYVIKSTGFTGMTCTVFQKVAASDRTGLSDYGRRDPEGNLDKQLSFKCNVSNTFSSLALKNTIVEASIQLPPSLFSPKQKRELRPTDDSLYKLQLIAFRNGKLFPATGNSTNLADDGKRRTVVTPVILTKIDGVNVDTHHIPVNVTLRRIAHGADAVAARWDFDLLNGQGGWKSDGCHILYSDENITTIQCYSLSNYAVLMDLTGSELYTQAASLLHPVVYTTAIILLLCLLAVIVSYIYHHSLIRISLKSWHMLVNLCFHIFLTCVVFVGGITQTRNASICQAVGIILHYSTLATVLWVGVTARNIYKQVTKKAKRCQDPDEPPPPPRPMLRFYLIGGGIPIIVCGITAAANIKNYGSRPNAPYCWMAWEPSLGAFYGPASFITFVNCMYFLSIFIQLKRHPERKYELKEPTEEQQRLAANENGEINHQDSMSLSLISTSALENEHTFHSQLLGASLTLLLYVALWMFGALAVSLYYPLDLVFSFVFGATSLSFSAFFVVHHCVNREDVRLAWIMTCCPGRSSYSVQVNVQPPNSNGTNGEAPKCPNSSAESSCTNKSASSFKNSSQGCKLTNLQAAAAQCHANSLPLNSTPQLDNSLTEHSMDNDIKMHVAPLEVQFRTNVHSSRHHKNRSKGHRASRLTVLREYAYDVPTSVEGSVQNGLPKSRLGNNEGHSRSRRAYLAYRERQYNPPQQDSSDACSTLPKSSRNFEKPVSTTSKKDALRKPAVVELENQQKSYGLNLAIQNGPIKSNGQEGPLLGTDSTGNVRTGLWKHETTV

[11] = target: Cysteinyl leukotriene receptor 1 (Homo sapiens) (UniProt Q9Y271); test: RLU of CYSLTR1 at 1.0 µM in the […] PRESTO-Tango GPCRome screen
[12] = target: Cannabinoid receptor 2 (Homo sapiens) (UniProt P34972); test: RLU of CNR2 at 1.0 µM in the […] PRESTO-Tango GPCRome screen
[13] = target: Proteinase-activated receptor 2 (Homo sapiens) (UniProt P55085); test: RLU of F2RL1 at 1.0 µM in the […] PRESTO-Tango GPCRome screen
[14] = target: 5-hydroxytryptamine receptor 5A (Homo sapiens) (UniProt P47898); test: RLU of HTR5 at 1.0 µM in the […] PRESTO-Tango GPCRome screen
[15] = target: Adhesion G protein-coupled receptor E5 (Homo sapiens) (UniProt P48960); test: RLU of CD97 at 1.0 µM in the […] PRESTO-Tango GPCRome screen
Chain of Adhesion G protein-coupled receptor E5 (Homo sapiens) (P48960 21-530 limits assumed): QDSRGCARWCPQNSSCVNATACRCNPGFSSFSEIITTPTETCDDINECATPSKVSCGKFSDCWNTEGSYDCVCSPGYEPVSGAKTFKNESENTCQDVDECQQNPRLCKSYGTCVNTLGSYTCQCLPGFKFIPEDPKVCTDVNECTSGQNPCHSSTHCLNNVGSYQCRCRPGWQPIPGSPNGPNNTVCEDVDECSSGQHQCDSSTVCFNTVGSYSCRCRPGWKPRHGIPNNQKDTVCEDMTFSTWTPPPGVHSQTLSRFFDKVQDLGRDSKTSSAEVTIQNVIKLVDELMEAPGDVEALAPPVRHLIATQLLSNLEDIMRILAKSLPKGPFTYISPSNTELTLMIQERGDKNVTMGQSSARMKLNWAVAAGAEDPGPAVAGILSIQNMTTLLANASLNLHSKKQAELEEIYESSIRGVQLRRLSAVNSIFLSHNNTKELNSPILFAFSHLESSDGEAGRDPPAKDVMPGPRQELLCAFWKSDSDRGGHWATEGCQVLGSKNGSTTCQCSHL
Chain of Adhesion G protein-coupled receptor E5 (Homo sapiens) (P48960 531-835 limits assumed): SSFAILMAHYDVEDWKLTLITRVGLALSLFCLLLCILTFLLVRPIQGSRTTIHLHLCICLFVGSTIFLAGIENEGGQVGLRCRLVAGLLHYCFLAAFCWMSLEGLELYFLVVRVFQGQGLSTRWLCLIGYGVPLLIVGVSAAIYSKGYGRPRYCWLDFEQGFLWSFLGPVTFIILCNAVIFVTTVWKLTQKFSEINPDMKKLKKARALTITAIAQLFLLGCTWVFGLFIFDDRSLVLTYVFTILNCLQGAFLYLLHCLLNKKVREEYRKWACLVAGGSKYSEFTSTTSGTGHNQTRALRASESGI

[16] = target: Sphingosine 1-phosphate receptor 1 (Homo sapiens) (UniProt P21453); test: RLU of S1PR1 at 1.0 µM in the […] PRESTO-Tango GPCRome screen
[17] = target: Prostaglandin E2 receptor EP2 subtype (Homo sapiens) (UniProt P43116); test: RLU of PTGER2 at 1.0 µM in the […] PRESTO-Tango GPCRome screen
Chain of Prostaglandin E2 receptor EP2 subtype (Homo sapiens) (P43116 whole entry): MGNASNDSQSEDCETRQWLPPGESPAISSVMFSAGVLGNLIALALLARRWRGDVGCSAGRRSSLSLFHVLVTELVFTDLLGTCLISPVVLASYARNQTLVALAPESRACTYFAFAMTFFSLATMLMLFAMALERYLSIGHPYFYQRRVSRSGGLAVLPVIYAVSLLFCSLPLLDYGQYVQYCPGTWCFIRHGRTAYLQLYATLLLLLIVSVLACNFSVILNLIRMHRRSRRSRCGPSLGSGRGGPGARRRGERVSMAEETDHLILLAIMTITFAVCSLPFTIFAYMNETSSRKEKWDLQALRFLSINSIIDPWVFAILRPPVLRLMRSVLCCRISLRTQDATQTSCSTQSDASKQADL

[18] = target: Mas-related G-protein coupled receptor member F (Homo sapiens) (UniProt Q96AM1); test: RLU of MRGPRF at 1.0 µM in the […] PRESTO-Tango GPCRome screen
Chain of Mas-related G-protein coupled receptor member F (Homo sapiens) (Q96AM1 whole entry): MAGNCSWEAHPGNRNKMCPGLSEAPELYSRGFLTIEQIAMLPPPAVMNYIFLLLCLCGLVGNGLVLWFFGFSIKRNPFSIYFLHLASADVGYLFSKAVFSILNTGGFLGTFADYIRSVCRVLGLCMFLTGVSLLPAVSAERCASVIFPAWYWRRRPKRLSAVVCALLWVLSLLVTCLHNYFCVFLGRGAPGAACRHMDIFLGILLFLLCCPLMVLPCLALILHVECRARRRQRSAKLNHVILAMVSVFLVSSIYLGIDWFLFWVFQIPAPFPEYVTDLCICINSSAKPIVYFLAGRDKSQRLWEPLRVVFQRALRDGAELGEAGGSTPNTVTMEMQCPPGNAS

[19] = target: Gastrin-releasing peptide receptor (Homo sapiens) (UniProt P30550); test: RLU of GRPR at 1.0 µM in the Aequorin PRESTO-Tango GPCRome screen
[20] = target: Neuromedin-U receptor 2 (Homo sapiens) (UniProt Q9GZQ4); test: RLU of NMUR2 at 1.0 µM in the […] PRESTO-Tango GPCRome screen
[21] = target: Prostaglandin F2-alpha receptor (Homo sapiens) (UniProt P43088); test: RLU of PTGFR at 1.0 µM in the […] PRESTO-Tango GPCRome screen
[22] = target: C-X-C chemokine receptor type 6 (Homo sapiens) (UniProt O00574); test: RLU of CXCR6 at 1.0 µM in the […] PRESTO-Tango GPCRome screen
Chain of C-X-C chemokine receptor type 6 (Homo sapiens) (O00574 whole entry, looked up): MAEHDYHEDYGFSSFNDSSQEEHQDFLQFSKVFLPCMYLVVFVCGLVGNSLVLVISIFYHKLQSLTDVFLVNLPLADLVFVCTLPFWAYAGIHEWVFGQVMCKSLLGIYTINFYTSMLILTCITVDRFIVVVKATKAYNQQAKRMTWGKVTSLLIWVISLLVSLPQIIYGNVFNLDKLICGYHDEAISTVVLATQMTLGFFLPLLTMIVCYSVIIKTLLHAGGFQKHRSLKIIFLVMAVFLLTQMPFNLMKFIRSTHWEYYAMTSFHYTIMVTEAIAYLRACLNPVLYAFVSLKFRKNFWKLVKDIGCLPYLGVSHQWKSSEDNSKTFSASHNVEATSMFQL

[23] = target: N-formyl peptide receptor 3 (Homo sapiens) (UniProt P25089); test: RLU of FPR3 at 1.0 µM in the […] PRESTO-Tango GPCRome screen
[24] = target: Muscarinic acetylcholine receptor M5 (Homo sapiens) (UniProt P08912); test: RLU of CHRM5 at 1.0 µM in the […] PRESTO-Tango GPCRome screen
[25] = target: Relaxin-3 receptor 1 (Homo sapiens) (UniProt Q9NSD7); test: RLU of RXFP3 at 1.0 µM in the […] PRESTO-Tango GPCRome screen
[26] = target: C5a anaphylatoxin chemotactic receptor 2 (Homo sapiens) (UniProt Q9P296); test: RLU of GPR77 at 1.0 µM in the […] PRESTO-Tango GPCRome screen
[27] = target: G-protein coupled receptor 26 (Homo sapiens) (UniProt Q8NDV2); test: RLU of GPR26 at 1.0 µM in the […] PRESTO-Tango GPCRome screen
[28] = target: G-protein coupled receptor 12 (Homo sapiens) (UniProt P47775); test: RLU of GPR12 at 1.0 µM in the […] PRESTO-Tango GPCRome screen
[29] = target: Trace amine-associated receptor 8 (Homo sapiens) (UniProt Q969N4); test: RLU of TAAR8 at 1.0 µM in the […] PRESTO-Tango GPCRome screen
[30] = target: Neuropeptide Y receptor type 1 (Homo sapiens) (UniProt P25929); test: RLU of NPY1R at 1.0 µM in the […] PRESTO-Tango GPCRome screen
[31] = target: G-protein coupled bile acid receptor 1 (Homo sapiens) (UniProt Q8TDU6); test: RLU of GPBA at 1.0 µM in the […] PRESTO-Tango GPCRome screen
Chain of G-protein coupled bile acid receptor 1 (Homo sapiens) (Q8TDU6 whole entry): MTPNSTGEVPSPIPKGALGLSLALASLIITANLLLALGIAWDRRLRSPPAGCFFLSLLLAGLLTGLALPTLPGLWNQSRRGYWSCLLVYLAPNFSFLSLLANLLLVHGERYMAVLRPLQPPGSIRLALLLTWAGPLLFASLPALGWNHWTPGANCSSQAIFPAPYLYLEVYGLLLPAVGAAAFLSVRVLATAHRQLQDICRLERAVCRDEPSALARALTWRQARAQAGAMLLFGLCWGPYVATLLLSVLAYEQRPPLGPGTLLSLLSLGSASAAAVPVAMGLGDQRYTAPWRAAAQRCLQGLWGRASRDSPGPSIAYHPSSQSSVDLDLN

[32] = target: Urotensin-2 receptor (Homo sapiens) (UniProt Q9UKP6); test: RLU of UTS2R at 1.0 µM in the […] PRESTO-Tango GPCRome screen
[33] = target: Probable G-protein coupled receptor 149 (Homo sapiens) (UniProt Q86SP6); test: RLU of GPR149 at 1.0 µM in the […] PRESTO-Tango GPCRome screen
[34] = target: P2Y purinoceptor 2 (Homo sapiens) (UniProt P41231); test: RLU of P2RY2 at 1.0 µM in the […] PRESTO-Tango GPCRome screen
[35] = target: Prostaglandin E2 receptor EP1 subtype (Homo sapiens) (UniProt P34995); test: RLU of PTGER1 at 1.0 µM in the […] PRESTO-Tango GPCRome screen
Chain of Prostaglandin E2 receptor EP1 subtype (Homo sapiens) (P34995 whole entry): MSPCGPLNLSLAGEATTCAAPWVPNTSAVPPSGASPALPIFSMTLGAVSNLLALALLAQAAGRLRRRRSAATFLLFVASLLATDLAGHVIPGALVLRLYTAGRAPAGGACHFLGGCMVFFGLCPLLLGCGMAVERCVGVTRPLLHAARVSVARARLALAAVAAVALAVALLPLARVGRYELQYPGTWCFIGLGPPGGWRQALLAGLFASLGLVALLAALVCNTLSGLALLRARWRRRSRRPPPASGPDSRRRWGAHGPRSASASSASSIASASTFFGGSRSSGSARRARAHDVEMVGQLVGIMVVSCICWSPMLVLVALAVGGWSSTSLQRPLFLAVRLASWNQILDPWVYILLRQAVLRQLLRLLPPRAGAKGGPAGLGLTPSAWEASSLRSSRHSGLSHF

CCCCC(=O)N1CC2(C1)CN(c1ccccc1-c1nnn[nH]1)C2
RLU [1]: -607
RLU [2]: 1810
RLU [3]: 2920
RLU [4]: 1540
RLU [5]: 120
RLU [6]: -153
RLU [7]: -2640
RLU [8]: -1210
RLU [9]: 6200
RLU [10]: -4100
RLU [11]: 1610
RLU [12]: 4360
RLU [13]: -1270
RLU [14]: -1880
RLU [15]: -895
RLU [16]: 11000
RLU [17]: 613
RLU [18]: -194
RLU [19]: -1250
RLU [20]: 710
RLU [21]: -81.2
RLU [22]: 761
RLU [23]: 2840
RLU [24]: 7390
RLU [25]: 6610
RLU [26]: 351
RLU [27]: -187
RLU [28]: 109
RLU [29]: -4860
RLU [30]: -114
RLU [31]: 275
RLU [32]: -160
RLU [33]: -2140
RLU [34]: 2250
RLU [35]: -390
